Values after ≈ are worked out from the molar mass of the structure shown.
Assay: Approximate solubility of Form A in solvents at room temperature
Format: physicochemical
Protocol: The approximate solubility of Form A was estimated in 27 solvents or co-solvents at room temperature. Approximately 2 mg of solids were weighed into each 3 mL glass vial, to which each of the solvents was added in stepwise until the solids dissolved completely or the total volume reaches 2.0 mL. Solubility ranges were used to guide the solvent selection for polymorph screening described in later examples.

For `C[C@@H](COCCC(=O)N1CCN(c2ncc(C(F)(F)F)cn2)CC1)Nc1cn[nH]c(=O)c1C(F)(F)F` [Form A, 5-[[(2S)-1-(3-oxo-3-[4-[5-(trifluoromethyl)pyrimidin-2-yl]piperazin-1-yl]propoxy)propan-2-yl]amino]-4-(trifluoromethyl)-2,3-dihydropyridazin-3-one], the solubility (organic solvent or mixture, thermodynamic from solid, 1,4-Dioxane) was 5000 to 10000 µg/mL (≈ 9.55 to 19.1 mM), the solubility (organic solvent or mixture, thermodynamic from solid, 2-MeTHF) was < 1000 µg/mL and the solubility (organic solvent or mixture, thermodynamic from solid, ACN) was 11000 to 22000 µg/mL (≈ 21 to 42 mM). The solubility (organic solvent or mixture, thermodynamic from solid, ACN/MIBK (1:9) v:v) was 2000 to 5000 µg/mL (≈ 3.82 to 9.55 mM), the solubility (organic solvent or mixture, thermodynamic from solid, ACN/MTBE (1:9) v:v) was 1200 to 2400 µg/mL (≈ 2.29 to 4.59 mM) and the solubility (organic solvent or mixture, thermodynamic from solid, ACN/THF (1:4) v:v) was 5000 to 10000 µg/mL (≈ 9.55 to 19.1 mM). The solubility (organic solvent or mixture, thermodynamic from solid, ACN/THF (1:9) v:v) was 10000 to 20000 µg/mL (≈ 19.1 to 38.2 mM), the solubility (organic solvent or mixture, thermodynamic from solid, Acetone) was > 40000 µg/mL and the solubility (organic solvent or mixture, thermodynamic from solid, Acetone/n-Heptane (1:4) v:v) was < 1300 µg/mL. The solubility (organic solvent or mixture, thermodynamic from solid, Acetone/n-Heptane (1:9) v:v) was < 1000 µg/mL, the solubility (organic solvent or mixture, thermodynamic from solid, CHCl3) was 22000 to 44000 µg/mL (≈ 42 to 84.1 mM) and the solubility (organic solvent or mixture, thermodynamic from solid, DCM) was 19000 to 38000 µg/mL (≈ 36.3 to 72.6 mM). For the same compound, the solubility (organic solvent or mixture, thermodynamic from solid, DCM/MTBE (1:9) v:v) was < 1200 µg/mL, the solubility (organic solvent or mixture, thermodynamic from solid, DMAc) was 22000 to 44000 µg/mL (≈ 42 to 84.1 mM) and the solubility (organic solvent or mixture, thermodynamic from solid, DMSO) was > 42000 µg/mL. For the same compound, the solubility (organic solvent or mixture, thermodynamic from solid, EtOAc) was 1900 to 4800 µg/mL (≈ 3.63 to 9.17 mM), the solubility (organic solvent or mixture, thermodynamic from solid, EtOH) was < 1100 µg/mL and the solubility (organic solvent or mixture, thermodynamic from solid, IPA) was < 1100 µg/mL. The solubility (organic solvent or mixture, thermodynamic from solid, IPAc) was < 1100 µg/mL, the solubility (organic solvent or mixture, thermodynamic from solid, MIBK) was < 1000 µg/mL and the solubility (organic solvent or mixture, thermodynamic from solid, MTBE) was < 1000 µg/mL. For the same compound, the solubility (organic solvent or mixture, thermodynamic from solid, MeOH) was < 1100 µg/mL, the solubility (organic solvent or mixture, thermodynamic from solid, NMP) was > 38000 µg/mL and the solubility (organic solvent or mixture, thermodynamic from solid, THF) was < 1100 µg/mL. For the same compound, the solubility (organic solvent or mixture, thermodynamic from solid, Toluene) was < 1000 µg/mL, the solubility (organic solvent or mixture, thermodynamic from solid, n-Heptane) was < 1000 µg/mL and the solubility (water, thermodynamic from solid, H2O) was < 1100 µg/mL.
